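Each compound was tested at five concentrations against cells in 96-well plates for 48 hours. The concentration for 50% growth inhibition is given as GI50. TGI: total growth inhibition.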
Legend:
Experiment in all cases: growth of human tumour cells (NCI), 48 h
A498 renal = tested on: A498 renal
CCRF-CEM leukemia = tested on: CCRF-CEM leukemia
EKVX NSCLC = tested on: EKVX NSCLC
HCT-15 colon = tested on: HCT-15 colon
HOP-62 NSCLC = tested on: HOP-62 NSCLC
LOX IMVI melanoma = tested on: LOX IMVI melanoma
M14 melanoma = tested on: M14 melanoma
OVCAR-3 ovarian = tested on: OVCAR-3 ovarian
SF-295 CNS = tested on: SF-295 CNS
SK-OV-3 ovarian = tested on: SK-OV-3 ovarian
UO-31 renal = tested on: UO-31 renal

CN(C)C(=S)Nc1nnc(NC23CC4CC(CC(C4)C2)C3)s1
TGI (A498 renal): 37.3 µM | TGI (CCRF-CEM leukemia): 84.9 µM | TGI (EKVX NSCLC): 59.7 µM | TGI (HCT-15 colon): 28.8 µM | TGI (HOP-62 NSCLC): 33.9 µM | TGI (LOX IMVI melanoma): 33.8 µM | TGI (M14 melanoma): 29.7 µM | TGI (OVCAR-3 ovarian): 46.3 µM | TGI (SF-295 CNS): 30.7 µM | TGI (SK-OV-3 ovarian): 80.1 µM | TGI (UO-31 renal): 25.2 µM

CN(C)c1cccc(-c2cc(=O)c3ccccc3[nH]2)c1
TGI (CCRF-CEM leukemia): > 100 µM | TGI (EKVX NSCLC): > 100 µM | TGI (HCT-15 colon): > 100 µM | TGI (HOP-62 NSCLC): > 100 µM | TGI (LOX IMVI melanoma): > 100 µM | TGI (M14 melanoma): > 100 µM | GI50 (OVCAR-3 ovarian): 42.1 µM | TGI (OVCAR-3 ovarian): > 100 µM | GI50 (SF-295 CNS): 28 µM | TGI (SF-295 CNS): > 100 µM | TGI (SK-OV-3 ovarian): > 100 µM | TGI (UO-31 renal): > 100 µM

CSCCC(NC(=O)C(Cc1ccccc1)NC(=O)CNC(=O)CNC(=O)C(N)Cc1ccc(O)cc1)C(=O)O (stereo not drawn)
TGI (A498 renal): > 100 µM | TGI (CCRF-CEM leukemia): > 100 µM | TGI (EKVX NSCLC): > 100 µM | TGI (HCT-15 colon): > 100 µM | TGI (HOP-62 NSCLC): > 100 µM | TGI (LOX IMVI melanoma): > 100 µM | TGI (OVCAR-3 ovarian): > 100 µM | TGI (SF-295 CNS): > 100 µM | TGI (SK-OV-3 ovarian): > 100 µM | TGI (UO-31 renal): > 100 µM

C#CCNC(=O)CCC(N)C(=O)O (stereo not drawn)
TGI (A498 renal): > 100 µM | TGI (CCRF-CEM leukemia): > 100 µM | TGI (EKVX NSCLC): > 100 µM | TGI (HCT-15 colon): > 100 µM | TGI (HOP-62 NSCLC): > 100 µM | TGI (LOX IMVI melanoma): > 100 µM | TGI (OVCAR-3 ovarian): > 100 µM | TGI (SF-295 CNS): > 100 µM | TGI (SK-OV-3 ovarian): > 100 µM | TGI (UO-31 renal): > 100 µM

OC1CN(OC/C=C/c2ccccc2)CC(O)C1O (stereo not drawn)
TGI (A498 renal): > 100 µM | TGI (CCRF-CEM leukemia): > 100 µM | TGI (EKVX NSCLC): > 100 µM | TGI (HCT-15 colon): > 100 µM | TGI (HOP-62 NSCLC): > 100 µM | TGI (LOX IMVI melanoma): > 100 µM | TGI (M14 melanoma): > 100 µM | TGI (OVCAR-3 ovarian): > 100 µM | TGI (SF-295 CNS): > 100 µM | TGI (SK-OV-3 ovarian): > 100 µM | TGI (UO-31 renal): > 100 µM

CCCOc1ccc(/C(Cl)=C(\C=O)c2ccc(OC)c(OC)c2)cc1OCCC
TGI (A498 renal): 38.5 µM | TGI (CCRF-CEM leukemia): > 100 µM | TGI (EKVX NSCLC): 50.4 µM | TGI (HCT-15 colon): 32.8 µM | TGI (HOP-62 NSCLC): > 100 µM | TGI (LOX IMVI melanoma): 25.8 µM | TGI (M14 melanoma): > 100 µM | TGI (OVCAR-3 ovarian): > 100 µM | TGI (SF-295 CNS): 88.3 µM | TGI (SK-OV-3 ovarian): > 100 µM | TGI (UO-31 renal): > 100 µM

NCCCNCCSSCc1ccccc1CSSCCNCCCN
TGI (A498 renal): > 100 µM | TGI (CCRF-CEM leukemia): 29.8 µM | TGI (EKVX NSCLC): > 100 µM | TGI (HCT-15 colon): > 100 µM | TGI (HOP-62 NSCLC): > 100 µM | TGI (LOX IMVI melanoma): > 100 µM | TGI (M14 melanoma): > 100 µM | TGI (OVCAR-3 ovarian): > 100 µM | TGI (SF-295 CNS): > 100 µM | TGI (SK-OV-3 ovarian): > 100 µM | TGI (UO-31 renal): > 100 µM

COC1/C=C\C=C(/C)C(=O)NC2=CC(=O)C=C(C2=O)C(OC)C(C)CC(OC)C(OC)C(C)/C=C(/C)C1OC(N)=O (stereo not drawn)
TGI (A498 renal): 28.4 µM | TGI (CCRF-CEM leukemia): 1.85 µM | TGI (EKVX NSCLC): 20.9 µM | TGI (HCT-15 colon): 15.4 µM | TGI (HOP-62 NSCLC): 8.05 µM | TGI (LOX IMVI melanoma): 13.8 µM | TGI (OVCAR-3 ovarian): 7.23 µM | TGI (SF-295 CNS): 35.4 µM | TGI (SK-OV-3 ovarian): 27.8 µM | TGI (UO-31 renal): 30 µM

CN(C)c1nc(N(C)C)nc(N(C)CN(C)c2ccccc2)n1
TGI (CCRF-CEM leukemia): > 100 µM | TGI (HCT-15 colon): > 100 µM | TGI (LOX IMVI melanoma): > 100 µM | TGI (OVCAR-3 ovarian): > 100 µM | TGI (SF-295 CNS): > 100 µM | TGI (SK-OV-3 ovarian): > 100 µM | TGI (UO-31 renal): > 100 µM
